Measured values: PubChem BioAssay (NCI)
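Values below derive from 48-hour exposures of cells grown in 96-well plates, with endpoints linearly interpolated between the two concentrations bracketing the appropriate inhibition level. Definition used: TGI = concentration required for complete inhibition of growth.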

Key:
Test in all cases: growth of human tumour cells (NCI), 48 h
DU-145 prostate = tested on: DU-145 prostate
SF-539 CNS = tested on: SF-539 CNS
RPMI-8226 leukemia = tested on: RPMI-8226 leukemia
SNB-75 CNS = tested on: SNB-75 CNS
TK-10 renal = tested on: TK-10 renal
MDA-N = tested on: MDA-N
SK-MEL-28 melanoma = tested on: SK-MEL-28 melanoma
OVCAR-8 ovarian = tested on: OVCAR-8 ovarian
MCF7 breast = tested on: MCF7 breast
A549 NSCLC = tested on: A549 NSCLC

Row | Compound | TGI (DU-145 prostate) | TGI (SF-539 CNS) | TGI (RPMI-8226 leukemia) | TGI (SNB-75 CNS) | TGI (TK-10 renal) | TGI (MDA-N) | TGI (SK-MEL-28 melanoma) | TGI (OVCAR-8 ovarian) | TGI (MCF7 breast) | TGI (A549 NSCLC)
1 | CCCCCCCCCCCCCCCC(=O)N(CCCCCCCCCCC(=O)O)CC(O)C(O)C(OC1OC(CO)C(O)C(O)C1O)C(O)CO (configuration not stated) | > 100 µM | 54.9 µM | 49.8 µM | > 100 µM | > 100 µM | > 100 µM | 34.6 µM | 66 µM | > 100 µM | > 100 µM
2 | O=C(Cc1ccccc1)Nn1c(-c2ccccc2)nc2ccccc2c1=O | > 100 µM | > 100 µM | > 100 µM | > 100 µM | > 100 µM | > 100 µM | > 100 µM | > 100 µM | > 100 µM | > 100 µM
3 | CCOC(=O)C(NC(=O)c1ccccc1)(N1CCOCC1)C(F)(F)F (configuration not stated) | > 100 µM | > 100 µM | > 100 µM | > 100 µM | > 100 µM | > 100 µM | > 100 µM | > 100 µM | > 100 µM | > 100 µM
4 | O=C(O)CC1NCc2cc3ccccc3nc21 (configuration not stated) | > 100 µM | > 100 µM | > 100 µM | > 100 µM | > 100 µM | > 100 µM | > 100 µM | > 100 µM | > 100 µM | > 100 µM
5 | FC(F)(F)c1cccc(-c2nc3ccccc3c3c2[C@@]2(N4CCCC4)CCCC[C@@H]32)c1 | > 100 µM | > 100 µM | 41.4 µM | > 100 µM | 89.8 µM | > 100 µM |  |  | 62.8 µM | > 100 µM
6 | CCCCCCCCCCCCOCCCOP(=O)([O-])OCC[N+](C)(C)C | > 75.1 µM | 54.9 µM | 31.6 µM | 71.1 µM | 14.9 µM | 19.3 µM | > 92.7 µM | > 80.3 µM | > 100 µM | > 100 µM
7 | COC(=O)[C@H](Cc1c[nH]c2ccccc12)NC(=O)c1ccc(CNC(=O)/C=C/c2cccc(Oc3ccccc3)c2)cc1 | > 100 µM |  | > 100 µM | > 100 µM | > 100 µM | 23.9 µM | > 100 µM | > 100 µM | > 100 µM | > 100 µM
8 | COc1cc2c(=O)cnoc2cc1O | > 100 µM | > 100 µM | > 100 µM | > 100 µM | > 100 µM | > 100 µM | > 100 µM | > 100 µM | > 100 µM | > 100 µM
9 | O=C(NCc1cccc2ccccc12)N/N=C\c1ccc(Cl)cc1 | > 100 µM | > 100 µM | > 100 µM | > 100 µM | > 100 µM | 75.7 µM | > 100 µM | > 100 µM | > 100 µM | 
10 | O=[N+]([O-])c1ccc(C=NCC2CCCN3CCCCC23)cc1 (configuration not stated) | > 100 µM |  | 48.1 µM | > 100 µM | > 100 µM | > 100 µM | > 100 µM | > 100 µM | 66.6 µM | > 100 µM
11 | COc1ccc(N2C=Nn3c(nc4sc5c(c4c3=O)CCCC5)C2)cc1 | > 100 µM |  | > 100 µM | > 100 µM | > 100 µM | > 100 µM | > 100 µM | > 100 µM | > 100 µM | > 100 µM
12 | Cc1noc(NC2=CC(=O)C(=O)c3ccccc32)c1C | > 100 µM | 14.1 µM | 36 µM | 82.5 µM | > 100 µM | 1.57 µM | > 100 µM | > 100 µM | 17.9 µM | 55.3 µM
13 | COc1c(O)cc2c(c1O)C(=O)/C(=C/c1ccc(O)cc1)CO2 | 78.1 µM | 48.9 µM | 37.2 µM | 57 µM | 85 µM | > 100 µM | 35.3 µM | 39.6 µM | > 100 µM | > 100 µM
14 | Cc1ccc(/C(O)=C/c2nc3ccccc3s/c2=N/CS(=O)(=O)c2ccc(C)cc2)cc1 | > 10 µM | > 10 µM | > 10 µM | > 10 µM | > 10 µM | > 10 µM | > 10 µM | > 10 µM | > 10 µM | > 10 µM
15 | Oc1ccc(Cl)cc1CN1CCN(Cc2cc(Cl)ccc2O)C1 | 11.6 µM | 2.81 µM | 15.3 µM | 7.59 µM | 9.69 µM | 6.43 µM | 6.78 µM | 2.21 µM | 24.1 µM | 9.85 µM
16 | CC(=O)OCC1OC(Oc2cc(C)c(O)cc2C/C=C(\C)CC/C=C(\C)CC(=O)CC(C)C)C(O)C(OC(C)=O)C1OC(C)=O (configuration not stated) | > 50 µM |  | 21.4 µM | > 50 µM | 41.1 µM | > 50 µM | > 50 µM | > 50 µM | 43.8 µM | 20.3 µM
17 | O=C(CNc1ccccc1[N+](=O)[O-])Nn1c(-c2ccccc2)nc2ccccc2c1=O | > 100 µM | 44.5 µM | 89.5 µM | 41.8 µM | > 10 µM | 57.9 µM | 59.2 µM | > 100 µM | 34.2 µM | > 100 µM
18 | O=C(N/N=C(/COc1ccc([N+](=O)[O-])cc1)N=Cc1ccncc1)c1ccncc1 | > 100 µM | > 100 µM | > 100 µM | > 100 µM | > 100 µM | > 100 µM | > 100 µM | > 100 µM | > 100 µM | > 100 µM
19 | COc1cc2c(cc1OC)C1(COc3cc(O)c(O)c(O)c3C1=O)C2 (configuration not stated) | > 50 µM | > 50 µM | > 50 µM | > 50 µM | > 50 µM | > 50 µM | > 50 µM | > 50 µM | 41.1 µM | > 50 µM
20 | COc1ccc(OC)c(NS(=O)(=O)c2ccc3nc(C)n(NS(=O)(=O)c4cc(OC)ccc4OC)c(=O)c3c2)c1 | > 100 µM | > 100 µM | > 100 µM | > 100 µM | > 100 µM | > 100 µM | > 100 µM | > 100 µM | > 100 µM | 
21 | CC(C)=CCC/C(C)=C/CC/C(C)=C/CC/C(=C/CC/C(C)=C\CC/C(C)=C/CC/C(C)=C/CC/C(C)=C/Cc1cc(O)ccc1O)CO | > 100 µM | 2.48 µM | > 100 µM | 12.7 µM | 19.5 µM | 64.3 µM | 10.9 µM | 13.5 µM | 15.2 µM | 22.6 µM
